Source: PMC5587309, “Involvement of arginine 878 together with Ca^2+ in mouse aminopeptidase A substrate specificity for N-terminal acidic amino-acid residues” (PLoS ONE, 2017)
Where a chain is given by its changes, count along the chain named. Where two headings read alike, the source gives them in different places.

Assays:
[1] = molecular target: APA; parameters: method as in PMID 7915326; conditions: read-out: inhibitory potency on APA; cited from earlier work
[2] = molecular target: T1, R878A mutated mAPA (Mus musculus, UniProt P16406, R878A); experiment: Inhibition of GluNA hydrolysis by purified recombinant R878A His-mAPA; format: biochemical; conditions: R878A mAPA; for Ki: 0.5 mM GluNA, read-out: Ki
T1 construct: made in house; host or cells: stably transfected CHO-K1 cells
T1 sequence (P16406 1-945 R878A): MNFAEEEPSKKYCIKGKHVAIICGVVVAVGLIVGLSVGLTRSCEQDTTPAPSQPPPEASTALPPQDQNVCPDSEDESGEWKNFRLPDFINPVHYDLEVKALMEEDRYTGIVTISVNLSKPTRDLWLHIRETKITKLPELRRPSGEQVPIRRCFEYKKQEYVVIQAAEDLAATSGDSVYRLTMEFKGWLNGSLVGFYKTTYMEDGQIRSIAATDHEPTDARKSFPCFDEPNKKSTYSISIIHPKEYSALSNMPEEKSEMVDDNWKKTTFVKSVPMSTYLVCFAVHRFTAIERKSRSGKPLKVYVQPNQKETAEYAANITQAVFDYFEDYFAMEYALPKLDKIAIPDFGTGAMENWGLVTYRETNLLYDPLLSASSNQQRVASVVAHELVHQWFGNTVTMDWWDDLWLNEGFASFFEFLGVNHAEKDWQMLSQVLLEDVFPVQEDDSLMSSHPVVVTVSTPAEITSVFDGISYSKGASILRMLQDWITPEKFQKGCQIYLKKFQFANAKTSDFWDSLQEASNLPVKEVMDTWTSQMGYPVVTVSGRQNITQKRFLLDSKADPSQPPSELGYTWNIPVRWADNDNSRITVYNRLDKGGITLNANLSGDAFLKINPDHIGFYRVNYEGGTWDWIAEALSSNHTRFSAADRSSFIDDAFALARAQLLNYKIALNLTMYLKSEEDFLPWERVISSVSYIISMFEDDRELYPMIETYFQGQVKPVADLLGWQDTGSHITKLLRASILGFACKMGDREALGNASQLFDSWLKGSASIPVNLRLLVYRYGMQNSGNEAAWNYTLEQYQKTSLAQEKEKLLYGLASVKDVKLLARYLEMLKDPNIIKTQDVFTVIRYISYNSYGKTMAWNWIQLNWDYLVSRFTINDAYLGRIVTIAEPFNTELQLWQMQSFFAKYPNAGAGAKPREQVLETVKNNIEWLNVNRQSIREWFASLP
Protocol: (§1) Enzyme assays were carried out for wild-type and mutated His-mAPAs in 50 mM Tris-HCl buffer, pH 7.4, with or without 4 mM CaCl2, by monitoring the rate of hydrolysis of GluNA, as previously described. The sensitivity to Ca^2+ of purified wild-type and mutated His-mAPA was determinated by incubating 0.5 mM GluNA with 0 to 4 mM CaCl2 in a final volume of 100 μl of 50 mM Tris-HCl buffer, pH 7.4. All the assays were performed in black 96-well plates (solid black 96-well flat-bottomed non-treated plates with no lid; Corning Costar). All of the enzymatic studies were performed such that substrate hydrolysis rates were maintained below 10% (initial rate conditions). The kinetic curves were monitored by following the increase in fluorescence at 460 nm (lex = 330 nm), induced by the release of the β-naphthylamide fluorogenic part of the substrate by APA. Fluorescence signals were monitored by counting photons with a spectrophotometer (Fusion universal microplate analyser; Packard) equipped with a temperature control device and a plate shaker. The kinetic parameters (Km and kcat) were determined from Michaelis-Menten plots, using GraphPad Prism 4 software (GraphPad) with a final concentration of substrate (GluNA) from 0.005 to 5 mM with or without 4 mM Ca^2+. For evaluation of the substrate specificity of APA with or without 4 mM Ca^2+, the rate of hydrolysis of […] additional substrates, α-L-aspartate-β-naphthylamide (AspNA), α-L-alanine-β-naphthylamide (AlaNA) and basic α-L-lysine-β-naphthylamide (LysNA), was determined under the same experimental conditions as described for GluNA. The sensitivity of wild-type and mutated His-mAPAs to inhibition by [(3S)-3-amino-4-sulfanyl-butane-1-sulfonic acid] (EC33), glutamate-thiol (GluSH), glutamate-phosphonic-acid (GluPO3H2), methionine-thiol (MetSH) and lysine-thiol (LysSH) was determined by establishing dose-dependent inhibition curves for a final GluNA concentration of 0.5 mM in the presence or absence of 4 mM CaCl2. These compounds being linear competitive inhibitors, their Ki were calculated from the formula Ki = IC50/ (1+ [GluNA]/Km).

[3] = molecular target: T2, wild-type mAPA (Mus musculus, UniProt P16406); experiment: Inhibition of GluNA hydrolysis by purified recombinant wild-type His-mAPA; format: biochemical; conditions: wild-type mAPA; for Ki: 0.5 mM GluNA, read-out: Ki
T2 construct: made in house; host or cells: stably transfected CHO-K1 cells
T2 sequence (P16406 1-945): T1 sequence (P16406 1-945 R878A) with A878R
Protocol: as §1

[4] = molecular target: T1, R878A mutated mAPA; experiment: Kinetic parameters of substrate hydrolysis by R878A His-mAPA; format: biochemical
Protocol: as §1

In the case of `N[C@H](CS)CCS(=O)(=O)O` [EC33, (3S)‐3‐amino‐4‐sulfanylbutane‐1‐sulfonic acid], the Ki [1] is given as 100 nM, the Ki ([2]; 4 mM Ca2+) is given as 2000 ± 200 nM and the Ki ([3]; 4 mM Ca2+) is given as 268 ± 22 nM.
In the case of `N[C@H](CS)CCC(=O)O` [GluSH, (4S)-4-amino-5-sulfanylpentanoic acid], the “enhancement of inhibitory potency by 4 mM Ca2+ compared to Ki in the absence of Ca2+” value [2] is reported as 1.7 fold, the Ki ([2]; 4 mM Ca2+) is reported as 983 ± 160 nM and the Ki ([2]; absence of calcium) is reported as 1720 ± 190 nM. The “enhancement of inhibitory potency by 4 mM Ca2+ compared to Ki in the absence of Ca2+” value [3] was 5.0 fold, the Ki ([3]; 4 mM Ca2+) was 314 ± 33 nM and the Ki ([3]; absence of calcium) was 1570 ± 270 nM.
Compound `C[C@H](N)C(=O)Nc1ccc2ccccc2c1` [HAlaβNA, α-L-alanine-β-naphthylamide] has a Km ([4]; 4 mM Ca2+) of 544 ± 74 µM, a kcat ([4]; 4 mM Ca2+) of 41.5 ± 1.6 s⁻¹ and a Km ([4]; no Ca2+) of 651 ± 43.8 µM. For the same compound, the kcat ([4]; no Ca2+) was 12.6 ± 0.04 s⁻¹.
`N[C@@H](CC(=O)O)C(=O)Nc1ccc2ccccc2c1` [HAspβNA, α-L-aspartate-β-naphthylamide] showed a Km ([4]; 4 mM Ca2+) of 199 ± 10.1 µM, a kcat ([4]; 4 mM Ca2+) of 17.9 ± 0.2 s⁻¹ and a Km ([4]; no Ca2+) of 1220 ± 24.9 µM. It also gave a kcat ([4]; no Ca2+) of 1.89 ± 0.2 s⁻¹.
`N[C@@H](CCC(=O)O)C(=O)Nc1ccc2ccccc2c1` [HGluβNA, α-L-glutamyl-β-naphthylamide] gave a Km ([4]; 4 mM Ca2+) of 221 ± 4 µM, a kcat ([4]; 4 mM Ca2+) of 22.4 ± 0.1 s⁻¹ and a Km ([4]; no Ca2+) of 1500 ± 79.6 µM. For the same compound, the kcat ([4]; no Ca2+) was 4.95 ± 0.1 s⁻¹, the “decrease in hydrolysis velocity (kcat) compared to wild-type (factor)” value ([4]; presence of Ca2+) was 4 and the “decrease in the affinity of the enzyme for the substrate compared to wild-type (factor)” value ([4]; presence of Ca2+) was 6.
For `NCCCC[C@H](N)C(=O)Nc1ccc2ccccc2c1` [HLysβNA, α-L-lysine-β-naphthylamide], the Km ([4]; 4 mM Ca2+) was 159 ± 7.8 µM, the kcat ([4]; 4 mM Ca2+) was 11.6 ± 0.2 s⁻¹ and the Km ([4]; no Ca2+) was 394 ± 57 µM. For the same compound, the kcat ([4]; no Ca2+) was 13.8 ± 0.7 s⁻¹.
Work on `NCCCC[C@H](N)CS` [LysSH, (2S)-2,6-diaminohexane-1-thiol] yielded a Ki ([2]; 4 mM Ca2+) of 7510 ± 660 nM, a Ki ([2]; absence of calcium) of 118 ± 13 nM and a Ki ([3]; 4 mM Ca2+) of 13400 ± 1700 nM. The Ki ([3]; absence of calcium) was 317 ± 30 nM.
Compound `CSCC[C@H](N)CS` [MetSH] has a Ki ([2]; 4 mM Ca2+) of 3220 ± 200 nM, a Ki ([2]; absence of calcium) of 475 ± 140 nM and a Ki ([3]; 4 mM Ca2+) of 9180 ± 770 nM. For the same compound, the Ki ([3]; absence of calcium) was 750 ± 46 nM.
